Measured values as given in patent US20230404996A1, “APPLICATION OF ISOQUINOLINE COMPOUND IN TUMOR TREATMENT” (NANJIANG SHIJIANG MEDICINE TECHNOLOGY CO., LTD, priority 2020, published 2023).
pIC50: −log10 of the molar value. Where a name gives a salt, the structure may show the parent alone. Read-outs that look alike come from different tables or passages of the source.

What was measured:
[1] = test system: NCI-H82 tumor; assay: Inhibitory effect on subcutaneous NCI-H82 tumor in nude mice; format: in vivo; settings: nude mice inoculated with NCI-H82, intraperitoneally 10 mg/kg/day; FIG. 14
Description: (§1) To verify whether the cells sensitive to isoquinoline compounds still maintained the sensitivity to isoquinoline compounds in vivo, inhibitory effect of berberine hydrochloride on tumor-bearing mice subcutaneously inoculated with sensitive cells (NCI-H82) was detected.
(§2) 5×10^6 of normal NCI-H82 cells, NCI-H82 cells with overexpression of NNMT protein and […] of DNMT1 (i.e. ov-NNMT/sh-DNMT1, the method for overexpressing NNMT protein and knocking down DNMT1 expression was shown in Example 13) were subcutaneously inoculated in nude mice to establish tumor-bearing mice. Each group of tumor-bearing mice was injected intraperitoneally with the berberine hydrochloride at a dose of 10 mg/kg/day, the change of tumor volume size over time was measured, and the tumors were removed and photographed in each group of mice at the end of the experiment to investigate the inhibitory effect of berberine hydrochloride on the tumor. The mice in control group was injected intraperitoneally with solvent vehicle in the same method, and the tumor volume was calculated as follows: tumor volume=½ length×width^2.

[2] = test system: NB-1; assay: Cell viability (CellTiter-Glo) IC50 on brain tumor cell lines; format: cell-based; settings: Homo sapiens, NB1, 72 h; NB-1, 3 days of culture; read-out: Inhibitory effect on brain tumor cell line (IC50)
Method: (§3) The inhibitory effect of isoquinoline compounds on various brain tumor cell lines was detected using cell activity detection reagents.
(§4) Cell viability was detected using the Promega CeliTiter-Glo kit, the kit reflected cell viability by directly measuring intracellular ATP content. In this experiment, the IC50 values of isoquinoline compounds on various brain tumor cell lines was determined.
(§5) Brain tumor cells were cultured in 10% FBS-containing medium (+p/s), and incubated for 3 h or the following day, the gradient diluted isoquinoline compound was added. After 3 days of culture, the relevant IC50 (50% inhibiting concentration) was measured. The name, source and culture conditions of each brain tumor cell line were as follows: • Cell line D341 Med (ATCC, No. HTB-187) was cultured in 20% fetal bovine serum-containing EMEM medium (+P/S). • Cell line Kelly (ECACC, No. 92110411) was cultured in RPMI1640 medium containing 10% fetal bovine serum and 2 mM glutamine; • Cell line NB-I (ATCC, No. HTB-131) was cultured in 10% fetal bovine serum-containing Leibovitz's L-15 medium (+P/S).

[3] = test system: Kelly; assay: as above; format: cell-based; settings: 72 h, 3 days of culture, read-out: Inhibitory effect on brain tumor cell line (IC50)
Method: as §3, §4, §5

[4] = test system: D341 Med; assay: as above; format: cell-based; settings: 72 h, 3 days of culture, read-out: Inhibitory effect on brain tumor cell line (IC50)
Method: as §3, §4, §5

[5] = test system: NCI-H82 ov-NNMT/sh-DNMT1 tumor; assay: Inhibitory effect on subcutaneous NCI-H82 ov-NNMT/sh-DNMT1 tumor in nude mice; format: in vivo; settings: nude mice inoculated with ov-NNMT/sh-DNMT1, intraperitoneally 10 mg/kg/day, compared with NCI-H82 tumor; FIG. 15
Description: as §1, §2

[6] = test system: NCI-H82; assay: Cell viability (CellTiter-Glo) IC50 on tumor cell lines; format: cell-based, human; settings: NCI-H82, 3 days of culture, read-out: Inhibitory effect on cell line (IC50)
Method: (§6) The inhibitory effect of isoquinoline compounds on various tumor cell lines was detected using cell activity detection reagent.
(§7) Cell viability was detected using the Promega CellTiter-Glo kit, the kit reflected cell viability by directly measuring intracellular ATP content. In this experiment, the IC50 values of isoquinoline compounds on various tumor cell lines was determined.
(§8) Tumor cells were cultured in 10% FBS-containing medium (+p/s), and incubated for 3 h or the following day, then the gradient diluted isoquinoline compound was added. After 3 days of culture, the relevant IC50 (50% inhibiting concentration) was measured. The name, source and culture conditions of each tumor cell line were as follows: • Cell line NCI-H82 (ATCC, No. HTB-175) was cultured in 10% fetal bovine serum-containing RPMI1640 medium (+P/S). • Cell line G-401 (ATCC, No. CRL-1441) was cultured in 10% fetal bovine serum-containing McCoy's 5a medium (+P/S). • Cell line MDA-MB-453 (ATCC, No. HTB-131) was cultured in 10% fetal bovine serum-containing Leibovit's L-15 medium (+P/S). • Cell line SW48 (ATCC, No. CCL-231) was cultured in 10% fetal bovine serum-containing Leibovitz's L-15 medium (+P/S). • Cell line CFPAC-1 (ATCC, No. CRL-1918) was cultured in 10% fetal bovine serum-containing IMDM medium (+P/S). • Cell line 786-O (ATCC, No. CRL-1932) was cultured in 10% fetal bovine serum-containing RPMI1640 medium (+P/S). • Cell line GB-I (JCRB, No. IFO50489) was cultured in 10% fetal bovine serum-containing DMEM medium (+P/S). • Cell line SF126 (JCRB, No. IFO50286) was cultured in 10% fetal bovine serum-containing EMEM medium (+P/S).

[7] = test system: NCI-H82 cell overexpressing NNMT protein (ov-NNMT); assay: Sensitivity of NCI-H82 cell after overexpression of NNMT protein (intracellular ATP detection); format: cell-based, human; settings: NNMT protein overexpressed alone (ov-NNMT), compared with Vector; FIG. 11
Description: (§9) The NCI-H82 cell overexpressing NNMT protein was obtained by inserting the NNMT gene into NCI-1-182 cell using a viral vector. The expression of DNMT1 in NCI-H82 cells was knocked down using shRNA transfection. The changes in sensitivity of cell to isoquinoline compounds was investigated using intracellular ATP detection methods after overexpression of NNMT protein and/or knockdown of DNMT1 expression. The experiment result was shown in FIG. 11, wherein, “Vector” referred to NCI-1182 cell transfected with empty virus as control group.

[8] = test system: SF-126; assay: Cell viability (CellTiter-Glo) IC50 on tumor cell lines; format: cell-based; settings: Homo sapiens, 72 h; SF-126, 3 days of culture; read-out: Inhibitory effect on cell line (IC50)
Method: as §6, §7, §8

[9] = test system: MDA-MB-453; assay: as above; format: cell-based; settings: Homo sapiens, 72 h; MDA-MB-453, 3 days of culture; read-out: Inhibitory effect on cell line (IC50)
Method: as §6, §7, §8

[10] = test system: CFPAC-1; assay: as above; format: cell-based; settings: Homo sapiens, 72 h; CFPAC-1, 3 days of culture; read-out: Inhibitory effect on cell line (IC50)
Method: as §6, §7, §8

[11] = test system: 786-O; assay: as above; format: cell-based; settings: Homo sapiens, 786-0, 72 h, 3 days of culture, read-out: Inhibitory effect on cell line (IC50)
Method: as §6, §7, §8

[12] = test system: G-401; assay: as above; format: cell-based; settings: Homo sapiens, 72 h; G-401, 3 days of culture; read-out: Inhibitory effect on cell line (IC50)
Method: as §6, §7, §8

[13] = test system: GB-1; assay: as above; format: cell-based; settings: Homo sapiens, 72 h; GB-1, 3 days of culture; read-out: Inhibitory effect on cell line (IC50)
Method: as §6, §7, §8

[14] = test system: SW48; assay: as above; format: cell-based; settings: Homo sapiens, 72 h; SW48, 3 days of culture; read-out: Inhibitory effect on cell line (IC50)
Method: as §6, §7, §8

[15] = test system: NCI-H82 cell ov-NNMT/sh-DNMT1 #1 and ov-NNMT/sh-DNMT1 #2; assay: Sensitivity of NCI-H82 cell after overexpression of NNMT and knockdown of DNMT1 (intracellular ATP detection); format: cell-based, human; settings: NNMT overexpressed and DNMT1 knocked down simultaneously; FIG. 11
Description: as §9

[16] = test system: NCI-H82 cell with knockdown of DNMT1 expression (sh-DNMT1 #1, sh-DNMT1 #2); assay: Sensitivity of NCI-H82 cell after knockdown of DNMT1 expression (intracellular ATP detection); format: cell-based, human; settings: DNMT1 expression knocked down (sh-DNMT1 #1 or #2), compared with Vector; FIG. 11
Description: as §9

Row | Compound | Inhibitory effect on subcutaneous tumor (tumor volume) [1] | pIC50 [2] | pIC50 [3] | pIC50 [4] | Inhibitory effect on subcutaneous tumor (tumor volume) [5] | pIC50 ([6]; Homo sapiens, 72 h) | Sensitivity of NCI-H82 cell to the compound [7] | pIC50 [8] | pIC50 [9] | pIC50 [10] | pIC50 [11] | pIC50 [12] | pIC50 [13] | pIC50 [14] | Sensitivity of NCI-H82 tumor cells to the compound [15] | Sensitivity of NCI-H82 cell to the compound [16] | pIC50 [6]
1 | COc1ccc2cc3[n+](cc2c1OC)CCc1cc2c(cc1-3)OCO2 [Berberine hydrochloride, reference compound] | significantly inhibit | 5.77 | 5.39 | 5.35 | significantly weaker | 6.29 | decreased | 4.67 | 6.03 | 5.02 | 4.82 | 5.95 | 4.71 | 5.90 | decreased more significantly | decreased | –
2 | CCCOc1c(OC)ccc2cc3[n+](cc12)CCc1cc2c(cc1-3)OCO2 [Compound BBR-A1] | – | 6.52 | 5.89 | 6.00 | – | 6.40 | – | 5.12 | 6.10 | 5.08 | 4.79 | 6.00 | 5.04 | 6.70 | – | – | –
3 | C=CCOc1c(OC)ccc2cc3[n+](cc12)CCc1cc2c(cc1-3)OCO2 [Compound BBR-A2] | – | 6.22 | 5.68 | 5.77 | – | 6.15 | – | 4.65 | 5.89 | 4.83 | 4.43 | 5.80 | 4.95 | 5.49 | – | – | –
4 | COc1ccc2cc3[n+](cc2c1OCC(=O)OC(C)(C)C)CCc1cc2c(cc1-3)OCO2 [Compound BBR-A5] | – | 6.52 | 5.74 | 5.82 | – | 6.30 | – | 4.81 | 6.15 | 4.75 | 4.73 | 5.96 | 5.04 | 5.74 | – | – | –
5 | c1c2c(cc3c1OCO3)-c1cc3ccc4c(c3c[n+]1CC2)OCO4 [Coptisine hydrochloride] | – | 5.60 | 5.36 | 5.55 | – | – | – | < 4.52 | 5.80 | 4.66 | < 4.52 | 5.47 | 4.61 | 5.22 | – | – | 5.74
6 | Cc1c2[n+](cc3cc4c(cc13)OCO4)CCc1cc3c(cc1-2)OCO3 [worenine] | – | 5.59 | 5.41 | 5.32 | – | 5.37 | – | < 4.52 | 5.89 | < 4.52 | < 4.52 | 5.64 | < 4.52 | 5.02 | – | – | –
